Results taken from ChEMBL document CHEMBL1201862, “PubChem BioAssay data set” (2004).
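Following 48 hours of exposure in 96-well plates, responses at five concentrations were used to interpolate endpoints linearly. GI50 = concentration required for 50% inhibition of growth.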 The source made the active and inactive calls. Cut-off read from the data, not from the text of the source: active = GI50 up to about 1.1 µM and inactive = higher.

Columns and labels:
Experiment in all cases: inhibition of tumour cell growth, NCI panel, 48 h
NCI/ADR-RES = system: NCI/ADR-RES
MDA-MB-231 = system: MDA-MB-231
SF-268 = system: SF-268
K562 = system: K562
MDA-N = system: MDA-N
NCI-H23 = system: NCI-H23
A498 = system: A498
CCRF-CEM = system: CCRF-CEM
OVCAR-4 = system: OVCAR-4
COLO 205 = system: COLO 205
NCI-H460 = system: NCI-H460
SNB-75 = system: SNB-75
SK-MEL-5 = system: SK-MEL-5
SR = system: SR
SNB-19 = system: SNB-19
NCI-H226 = system: NCI-H226
MOLT-4 = system: MOLT-4
U-251 = system: U-251
NCI-H522 = system: NCI-H522
PC-3 = system: PC-3
HT-29 = system: HT-29
OVCAR-8 = system: OVCAR-8
A549 = system: A549
ACHN = system: ACHN
OVCAR-3 = system: OVCAR-3
HL-60 = system: HL-60
HCT-15 = system: HCT-15
M14 = system: M14
UACC-257 = system: UACC-257
DU-145 = system: DU-145
HCC 2998 = system: HCC 2998
MDA-MB-435 = system: MDA-MB-435
MCF7 = system: MCF7
SN12C = system: SN12C
RXF 393 = system: RXF 393
SF-295 = system: SF-295
HCT-116 = system: HCT-116
KM12 = system: KM12
SW-620 = system: SW-620
T47D = system: T47D
HOP-92 = system: HOP-92
SK-MEL-28 = system: SK-MEL-28
UO-31 = system: UO-31
Hs-578T = system: Hs-578T
TK-10 = system: TK-10
LOX IMVI = system: LOX IMVI
SK-OV-3 = system: SK-OV-3
UACC-62 = system: UACC-62
IGROV-1 = system: IGROV-1
SK-MEL-2 = system: SK-MEL-2
HOP-62 = system: HOP-62
Malme-3M = system: Malme-3M
786-0 = system: 786-0
RPMI-8226 = system: RPMI-8226
OVCAR-5 = system: OVCAR-5
CAKI-1 = system: CAKI-1
BT-549 = system: BT-549
SF-539 = system: SF-539
EKVX = system: EKVX

With `Cc1ccc(S(=O)(=O)NCCCSCCN)cc1` the GI50 (NCI/ADR-RES) was > 100 µM (inactive), the GI50 (MDA-MB-231) was > 100 µM (inactive) and the GI50 (SF-268) was > 100 µM (inactive). For the same compound, the GI50 (K562) was > 100 µM (inactive), the GI50 (MDA-N) was > 100 µM (inactive) and the GI50 (NCI-H23) was > 100 µM (inactive). For the same compound, the GI50 (A498) was 4.99 µM (inactive), the GI50 (CCRF-CEM) was > 100 µM (inactive) and the GI50 (OVCAR-4) was > 100 µM (inactive). The GI50 (COLO 205) was > 100 µM (inactive), the GI50 (NCI-H460) was > 100 µM (inactive) and the GI50 (SNB-75) was > 100 µM (inactive). For the same compound, the GI50 (SK-MEL-5) was 22 µM (inactive), the GI50 (SR) was > 100 µM (inactive) and the GI50 (SNB-19) was > 100 µM (inactive). The GI50 (NCI-H226) was > 100 µM (inactive), the GI50 (MOLT-4) was > 100 µM (inactive) and the GI50 (U-251) was > 100 µM (inactive). For the same compound, the GI50 (NCI-H522) was > 100 µM (inactive), the GI50 (PC-3) was > 100 µM (inactive) and the GI50 (HT-29) was > 100 µM (inactive). The GI50 (OVCAR-8) was > 100 µM (inactive), the GI50 (A549) was > 100 µM (inactive) and the GI50 (ACHN) was > 100 µM (inactive). The GI50 (OVCAR-3) was > 100 µM (inactive), the GI50 (HL-60) was > 100 µM (inactive) and the GI50 (HCT-15) was over 100 µM. The GI50 (M14) was > 100 µM (inactive), the GI50 (UACC-257) was > 100 µM (inactive) and the GI50 (DU-145) was > 100 µM (inactive). The GI50 (HCC 2998) was > 100 µM (inactive), the GI50 (MDA-MB-435) was > 100 µM (inactive) and the GI50 (MCF7) was > 100 µM (inactive). For the same compound, the GI50 (SN12C) was > 100 µM (inactive), the GI50 (RXF 393) was > 100 µM (inactive) and the GI50 (SF-295) was > 100 µM (inactive). For the same compound, the GI50 (HCT-116) was > 100 µM (inactive), the GI50 (KM12) was > 100 µM (inactive) and the GI50 (SW-620) was > 100 µM (inactive). For the same compound, the GI50 (T47D) was > 100 µM (inactive), the GI50 (HOP-92) was > 100 µM (inactive) and the GI50 (SK-MEL-28) was > 100 µM (inactive). For the same compound, the GI50 (UO-31) was > 100 µM (inactive), the GI50 (Hs-578T) was > 100 µM (inactive) and the GI50 (TK-10) was > 100 µM (inactive). The GI50 (LOX IMVI) was < 0.01 µM (active) and the GI50 (SK-OV-3) was > 100 µM (inactive).

With `CCOC(=O)C1OC(=O)CC1C1(C(=O)OCC)C=CC(=O)O1` (configuration not stated) the GI50 (NCI/ADR-RES) was > 100 µM (inactive), the GI50 (UACC-62) was > 100 µM (inactive) and the GI50 (SF-268) was > 100 µM (inactive). For the same compound, the GI50 (IGROV-1) was > 100 µM (inactive), the GI50 (SK-MEL-2) was > 100 µM (inactive) and the GI50 (K562) was > 100 µM (inactive). The GI50 (MDA-N) was > 100 µM (inactive), the GI50 (NCI-H23) was > 100 µM (inactive) and the GI50 (CCRF-CEM) was 59.7 µM (inactive). For the same compound, the GI50 (OVCAR-4) was > 100 µM (inactive), the GI50 (COLO 205) was > 100 µM (inactive) and the GI50 (NCI-H460) was 17.9 µM (inactive). The GI50 (SNB-75) was > 100 µM (inactive), the GI50 (SK-MEL-5) was > 100 µM (inactive) and the GI50 (SR) was > 100 µM (inactive). For the same compound, the GI50 (HOP-62) was > 100 µM (inactive), the GI50 (SNB-19) was > 100 µM (inactive) and the GI50 (NCI-H226) was > 100 µM (inactive). The GI50 (MOLT-4) was > 100 µM (inactive), the GI50 (U-251) was 93.8 µM (inactive) and the GI50 (Malme-3M) was > 100 µM (inactive). The GI50 (786-0) was > 100 µM (inactive), the GI50 (NCI-H522) was > 100 µM (inactive) and the GI50 (PC-3) was > 100 µM (inactive). For the same compound, the GI50 (HT-29) was > 100 µM (inactive), the GI50 (OVCAR-8) was > 100 µM (inactive) and the GI50 (A549) was > 100 µM (inactive). The GI50 (ACHN) was > 100 µM (inactive), the GI50 (RPMI-8226) was > 100 µM (inactive) and the GI50 (OVCAR-3) was > 100 µM (inactive). For the same compound, the GI50 (OVCAR-5) was > 100 µM (inactive), the GI50 (HL-60) was 42 µM (inactive) and the GI50 (HCT-15) was over 100 µM. For the same compound, the GI50 (M14) was > 100 µM (inactive), the GI50 (UACC-257) was > 100 µM (inactive) and the GI50 (CAKI-1) was > 100 µM (inactive). The GI50 (BT-549) was > 100 µM (inactive), the GI50 (DU-145) was > 100 µM (inactive) and the GI50 (HCC 2998) was > 100 µM (inactive). For the same compound, the GI50 (MCF7) was > 100 µM (inactive), the GI50 (SN12C) was > 100 µM (inactive) and the GI50 (RXF 393) was > 100 µM (inactive). The GI50 (SF-295) was > 100 µM (inactive), the GI50 (HCT-116) was > 100 µM (inactive) and the GI50 (KM12) was > 100 µM (inactive). For the same compound, the GI50 (SW-620) was > 100 µM (inactive), the GI50 (SF-539) was > 100 µM (inactive) and the GI50 (HOP-92) was > 100 µM (inactive). The GI50 (SK-MEL-28) was > 100 µM (inactive), the GI50 (UO-31) was > 100 µM (inactive) and the GI50 (TK-10) was > 100 µM (inactive). For the same compound, the GI50 (LOX IMVI) was 14.2 µM (inactive), the GI50 (SK-OV-3) was > 100 µM (inactive) and the GI50 (EKVX) was > 100 µM (inactive).

In the case of `COC/C=C\[C@]1(O)CCCC[C@@H]1CC(OC)OC`, the GI50 (NCI/ADR-RES) is reported as > 100 µM (inactive), the GI50 (MDA-MB-231) is reported as > 100 µM (inactive) and the GI50 (UACC-62) is reported as > 100 µM (inactive). For the same compound, the GI50 (SF-268) was > 100 µM (inactive), the GI50 (IGROV-1) was > 100 µM (inactive) and the GI50 (SK-MEL-2) was > 100 µM (inactive). The GI50 (K562) was 43.5 µM (inactive), the GI50 (MDA-N) was > 100 µM (inactive) and the GI50 (NCI-H23) was > 100 µM (inactive). For the same compound, the GI50 (A498) was > 100 µM (inactive), the GI50 (CCRF-CEM) was 37.1 µM (inactive) and the GI50 (OVCAR-4) was > 100 µM (inactive). For the same compound, the GI50 (COLO 205) was > 100 µM (inactive), the GI50 (NCI-H460) was > 100 µM (inactive) and the GI50 (SNB-75) was > 100 µM (inactive). For the same compound, the GI50 (SK-MEL-5) was > 100 µM (inactive), the GI50 (SR) was 81.1 µM (inactive) and the GI50 (HOP-62) was > 100 µM (inactive). For the same compound, the GI50 (SNB-19) was > 100 µM (inactive), the GI50 (NCI-H226) was > 100 µM (inactive) and the GI50 (MOLT-4) was 23.4 µM (inactive). For the same compound, the GI50 (U-251) was > 100 µM (inactive), the GI50 (Malme-3M) was > 100 µM (inactive) and the GI50 (786-0) was > 100 µM (inactive). The GI50 (NCI-H522) was 67.5 µM (inactive), the GI50 (PC-3) was > 100 µM (inactive) and the GI50 (HT-29) was > 100 µM (inactive). The GI50 (OVCAR-8) was > 100 µM (inactive), the GI50 (A549) was > 100 µM (inactive) and the GI50 (ACHN) was > 100 µM (inactive). For the same compound, the GI50 (RPMI-8226) was 97.7 µM (inactive), the GI50 (OVCAR-3) was > 100 µM (inactive) and the GI50 (OVCAR-5) was > 100 µM (inactive). For the same compound, the GI50 (HL-60) was 20.4 µM (inactive), the GI50 (HCT-15) was over 100 µM and the GI50 (M14) was > 100 µM (inactive). For the same compound, the GI50 (UACC-257) was > 100 µM (inactive), the GI50 (CAKI-1) was > 100 µM (inactive) and the GI50 (DU-145) was > 100 µM (inactive). The GI50 (HCC 2998) was > 100 µM (inactive), the GI50 (MDA-MB-435) was > 100 µM (inactive) and the GI50 (MCF7) was > 100 µM (inactive). The GI50 (RXF 393) was > 100 µM (inactive), the GI50 (SF-295) was > 100 µM (inactive) and the GI50 (KM12) was > 100 µM (inactive). The GI50 (SW-620) was > 100 µM (inactive), the GI50 (SF-539) was > 100 µM (inactive) and the GI50 (T47D) was > 100 µM (inactive). The GI50 (HOP-92) was > 100 µM (inactive), the GI50 (SK-MEL-28) was > 100 µM (inactive) and the GI50 (UO-31) was > 100 µM (inactive). For the same compound, the GI50 (Hs-578T) was > 100 µM (inactive), the GI50 (TK-10) was > 100 µM (inactive) and the GI50 (LOX IMVI) was > 100 µM (inactive). For the same compound, the GI50 (SK-OV-3) was > 100 µM (inactive) and the GI50 (EKVX) was > 100 µM (inactive).
